Results reported in patent US10202389B2, “Pyrazolopyrimidinyl inhibitors of ubiquitin-activating enzyme” (Millennium Pharmaceuticals, Inc., priority 2012, dated 2019).

Molecular target: recombinant human UAE (Homo sapiens (Human), UniProt P22314)
Experiment: Ubiquitin Activating Enzyme (UAE) HTRF Assay
Settings: read-out: % inhibition @0.111 μM
Experimental: After incubation for 120 minutes, quantification of the FRET is performed on the Pherostar (BMG).
For compounds whose values are marked with an asterisk (*), mouse UAE was used. For all other compounds, human UAE was used.

Chain of recombinant human UAE (P22314 whole entry): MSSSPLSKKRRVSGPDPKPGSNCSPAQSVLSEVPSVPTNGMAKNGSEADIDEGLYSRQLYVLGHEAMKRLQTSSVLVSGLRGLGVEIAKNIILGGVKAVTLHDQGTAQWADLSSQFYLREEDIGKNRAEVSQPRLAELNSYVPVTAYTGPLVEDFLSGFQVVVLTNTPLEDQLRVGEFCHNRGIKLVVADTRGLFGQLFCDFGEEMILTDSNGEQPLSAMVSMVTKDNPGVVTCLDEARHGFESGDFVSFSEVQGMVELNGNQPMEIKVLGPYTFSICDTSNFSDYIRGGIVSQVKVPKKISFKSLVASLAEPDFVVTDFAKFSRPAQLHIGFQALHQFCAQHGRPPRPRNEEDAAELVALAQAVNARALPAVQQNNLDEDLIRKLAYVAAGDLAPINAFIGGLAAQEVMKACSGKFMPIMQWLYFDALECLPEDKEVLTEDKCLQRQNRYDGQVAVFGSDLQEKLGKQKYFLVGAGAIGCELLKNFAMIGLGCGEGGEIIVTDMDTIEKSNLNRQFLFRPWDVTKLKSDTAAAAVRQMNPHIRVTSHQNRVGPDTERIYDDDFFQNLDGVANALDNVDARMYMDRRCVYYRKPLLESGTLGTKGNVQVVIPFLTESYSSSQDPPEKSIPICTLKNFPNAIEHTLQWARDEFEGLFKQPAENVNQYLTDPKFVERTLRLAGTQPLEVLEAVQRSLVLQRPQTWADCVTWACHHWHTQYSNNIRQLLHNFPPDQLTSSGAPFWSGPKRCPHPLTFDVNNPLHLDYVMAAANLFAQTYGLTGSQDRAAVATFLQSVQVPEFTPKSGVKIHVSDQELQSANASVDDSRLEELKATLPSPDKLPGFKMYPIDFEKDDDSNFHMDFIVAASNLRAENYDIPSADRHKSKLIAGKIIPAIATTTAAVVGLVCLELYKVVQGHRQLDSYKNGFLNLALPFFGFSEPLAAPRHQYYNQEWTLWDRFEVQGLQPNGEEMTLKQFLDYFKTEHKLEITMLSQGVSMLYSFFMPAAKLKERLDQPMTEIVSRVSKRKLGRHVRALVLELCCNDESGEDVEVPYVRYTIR

| SMILES | inhibition at 0.111 µM |
| --- | --- |
| CCc1ccc2sc(-c3cc4nccc(N[C@@H]5C[C@H](COS(N)(=O)=O)[C@@H](O)[C@H]5O)n4n3)cc2c1 (relative stereo) [Compound I-095, (rac)-((1R,2R,3S,4R)-4-(2-(5-ethylbenzo[b]thiophen-2-yl)pyrazolo[1,5-a]pyrimidin-7-ylamino)-2,3-dihydroxycyclopentyl)methyl rel-sulfamate] | 70% |
| CC1(C)OCc2ccc(-c3cc4nccc(N[C@@H]5C[C@H](COS(N)(=O)=O)[C@@H](O)[C@H]5O)n4n3)cc21 (relative stereo) [Compound I-053, (rac)-((1R,2R,3S,4R)-4-(2-(3,3-dimethyl-1,3-dihydroisobenzofuran-5-yl)pyrazolo[1,5-a]pyrimidin-7-ylamino)-2,3-dihydroxycyclopentyl)methyl rel-sulfamate] | 100% |
| NS(=O)(=O)OC[C@H]1C[C@@H](Nc2ccnc3cc(-c4cccc(C5=CCCC5)c4)nn23)[C@H](O)[C@@H]1O (relative stereo) [Compound I-047, (rac)-(1R,2R,3S,4R)-4-(2-(3-cyclopentenylphenyl)pyrazolo[1,5-a]pyrimidin-7-ylamino)-2,3-dihydroxycyclopentyl)methyl rel-sulfamate] | 100% |
| COc1ccc(-c2cc3nccc(N[C@@H]4C[C@H](COS(N)(=O)=O)[C@@H](O)[C@H]4O)n3n2)c2ccccc12 [Compound I-106, (s.e.)-((1R,2R,3S,4R)-2,3-dihydroxy-4-(2-(4-methoxynaphthalen-1-yl)pyrazolo[1,5-a]pyrimidin-7-ylamino)cyclopentyl)methyl sulfamate] | 100% |
| NS(=O)(=O)OC[C@H]1C[C@@H](Nc2ccnc3cc(-c4ccc5cccnc5c4)nn23)[C@H](O)[C@@H]1O (relative stereo) [Compound I-043, (rac)-((1R,2R,3S,4R)-2,3-dihydroxy-4-(2-(quinolin-7-yl)pyrazolo[1,5-a]pyrimidin-7-ylamino)cyclopentyl)methyl rel-sulfamate] | 100% |
| NS(=O)(=O)OC[C@H]1C[C@@H](Nc2ccnc3cc(-c4ccc5oc6ccccc6c5c4)nn23)[C@H](O)[C@@H]1O (relative stereo) [Compound I-019, (rac)-((1R,2R,3S,4R)-4-(2-(dibenzo[b,d]furan-2-yl)pyrazolo[1,5-a]pyrimidin-7-ylamino)-2,3-dihydroxycyclopentyl)methyl rel-sulfamate] | 100% |
| NS(=O)(=O)OC[C@H]1C[C@@H](Nc2ccnc3cc(-c4c[nH]c5ccc(Cl)cc45)nn23)[C@H](O)[C@@H]1O (relative stereo) [Compound I-054, (rac)-[(1R,2R,3S,4R)-4-{[2-(5-chloro-1H-indol-3-yl)pyrazolo[1,5-a]pyrimidin-7-yl]amino}-2,3-dihydroxycyclopentyl]methyl rel-sulfamate] | 100% |
| COc1ccc(OC(F)(F)F)cc1-c1cc2nccc(N[C@@H]3C[C@H](COS(N)(=O)=O)[C@@H](O)[C@H]3O)n2n1 (relative stereo) [Compound I-066, (rac)-((1R,2R,3S,4R)-2,3-Dihydroxy-4-((2-(2-methoxy-5-(trifluoromethoxy)-phenyl)pyrazolo[1,5-a]pyrimidin-7-yl)amino)cyclopentyl)methyl rel-sulfamate] | 100% |
| NS(=O)(=O)OC[C@H]1C[C@@H](Nc2ccnc3cc(-c4cnc5ccccc5c4)nn23)[C@H](O)[C@@H]1O (relative stereo) [Compound I-025, (rac)-((1R,2R,3S,4R)-2,3-dihydroxy-4-(2-(quinolin-3-yl)pyrazolo[1,5-a]pyrimidin-7-ylamino)cyclopentyl)methyl rel-sulfamate] | 93% |
| NS(=O)(=O)OC[C@H]1C[C@@H](Nc2ccnc3cc(-c4ccc5cc(F)ccc5c4)nn23)[C@H](O)[C@@H]1O [Compound I-113, (s.e.)-((1R,2R,3S,4R)-4-(2-(6-fluoronaphthalen-2-yl)pyrazolo[1,5-a]pyrimidin-7-ylamino)-2,3-dihydroxycyclopentyl)methyl sulfamate] | 100% |
| CC(C)(C)c1cccc(-c2cc3nccc(N[C@@H]4C[C@H](COS(N)(=O)=O)[C@@H](O)[C@H]4O)n3n2)n1 (relative stereo) [Compound I-052, (rac)-((1R,2R,3S,4R)-4-(2-(6-tert-butylpyridin-2-yl)pyrazolo[1,5-a]pyrimidin-7-ylamino)-2,3-dihydroxycyclopentyl)methyl rel-sulfamate] | 100% |
| CC1(C)COc2c(-c3cc4nccc(N[C@@H]5C[C@H](COS(N)(=O)=O)[C@@H](O)[C@H]5O)n4n3)cccc21 (relative stereo) [Compound I-023, (rac)-((1R,2R,3S,4R)-4-(2-(3,3-dimethyl-2,3-dihydrobenzofuran-7-yl)pyrazolo[1,5-a]pyrimidin-7-ylamino)-2,3-dihydroxycyclopentyl)methyl rel-sulfamate] | 96% |
| CC1(C)COc2ccc(-c3cc4nccc(N[C@@H]5C[C@H](COS(N)(=O)=O)[C@@H](O)[C@H]5O)n4n3)cc21 (relative stereo) [Compound I-026, (rac)-((1R,2R,3S,4R)-4-(2-(3,3-dimethyl-2,3-dihydrobenzofuran-5-yl)pyrazolo[1,5-a]pyrimidin-7-ylamino)-2,3-dihydroxycyclopentyl)methyl rel-sulfamate] | 100% |
| NS(=O)(=O)OC[C@H]1C[C@@H](Nc2c(Cl)cnc3c(Cl)c(-c4cccc(SC(F)(F)F)c4)nn23)[C@H](O)[C@@H]1O [Compound I-124, (s.e.)-{(1R,2R,3S,4R)-4-[(3,6-dichloro-2-{3-[(trifluoromethyl)sulfanyl]phenyl}pyrazolo[1,5-a]pyrimidin-7-yl)amino]-2,3-dihydroxycyclopentyl}methyl sulfamate] | 20% |
| NS(=O)(=O)OC[C@H]1C[C@@H](Nc2ccnc3cc(-c4ccnc(C(F)(F)F)c4)nn23)[C@H](O)[C@@H]1O (relative stereo) [Compound I-059, (rac)-((1R,2R,3S,4R)-2,3-dihydroxy-4-(2-(2-(trifluoromethyl)pyridin-4-yl)pyrazolo[1,5-a]pyrimidin-7-ylamino)cyclopentyl)methyl rel-sulfamate] | 94% |
| NS(=O)(=O)OC[C@H]1C[C@@H](Nc2ccnc3cc(-c4ccc5c(c4)C(=O)c4ccccc4-5)nn23)[C@H](O)[C@@H]1O (relative stereo) [Compound I-085, (rac)-((1R,2R,3S,4R)-2,3-dihydroxy-4-(2-(9-oxo-9H-fluoren-2-yl)pyrazolo[1,5-a]pyrimidin-7-ylamino)cyclopentyl)methyl rel-sulfamate] | 99% |
| C[Si](C)(C)c1cccc(-c2cc3nccc(N[C@@H]4C[C@H](COS(N)(=O)=O)[C@@H](O)[C@H]4O)n3n2)c1 (relative stereo) [Compound I-035, (rac)-((1R,2R,3S,4R)-2,3-dihydroxy-4-(2-(3-(trimethylsilyl)phenyl)pyrazolo[1,5-a]pyrimidin-7-ylamino)cyclopentyl)methyl rel-sulfamate] | 100% |
| NS(=O)(=O)OC[C@H]1C[C@@H](Nc2ccnc3cc(-c4cccc5sccc45)nn23)[C@H](O)[C@@H]1O (relative stereo) [Compound I-061, (rac)-((1R,2R,3S,4R)-4-((2-(Benzo[b]thiophen-4-yl)pyrazolo[1,5-a]pyrimidin-7-yl)amino)-2,3-dihydroxycyclopentyl)methyl rel-sulfamate] | 100% |
| NS(=O)(=O)OC[C@H]1C[C@@H](Nc2ccnc3cc(-c4cccc5ccsc45)nn23)[C@H](O)[C@@H]1O (relative stereo) [Compound I-045, (rac)-((1R,2R,3S,4R)-4-((2-(Benzo[b]thiophen-7-yl)pyrazolo[1,5-a]pyrimidin-7-yl)amino)-2,3-dihydroxycyclopentyl)methyl rel-sulfamate] | 100% |
| NS(=O)(=O)OC[C@H]1C[C@@H](Nc2ccnc3cc(-c4cccc(N5CCCCC5)c4)nn23)[C@H](O)[C@@H]1O (relative stereo) [Compound I-077, (rac)-((1R,2R,3S,4R)-2,3-dihydroxy-4-(2-(3-(piperidin-1-yl)phenyl)pyrazolo[1,5-a]pyrimidin-7-ylamino)cyclopentyl)methyl rel-sulfamate] | 100% |
| NS(=O)(=O)OC[C@H]1C[C@@H](Nc2ccnc3cc(-c4cccc5cccnc45)nn23)[C@H](O)[C@@H]1O (relative stereo) [Compound I-017, (rac)-((1R,2R,3S,4R)-2,3-Dihydroxy-4-((2-(quinolin-8-yl)pyrazolo[1,5-a]pyrimidin-7-yl)amino)cyclopentyl)methyl rel-sulfamate] | 100% |
| COc1cc(F)ccc1-c1cc2nccc(N[C@@H]3C[C@H](COS(N)(=O)=O)[C@@H](O)[C@H]3O)n2n1 (relative stereo) [Compound I-070, (rac)-((1R,2R,3S,4R)-4-(2-(4-fluoro-2-methoxyphenyl)pyrazolo[1,5-a]pyrimidin-7-ylamino)-2,3-dihydroxycyclopentyl)methyl rel-sulfamate] | 99% |
| NS(=O)(=O)OC[C@H]1C[C@@H](Nc2ccnc3cc(-c4cccc5ccccc45)nn23)[C@H](O)[C@@H]1O [Compound I-098, (s.e.)-((1R,2R,3S,4R)-2,3-dihydroxy-4-{[2-(1-naphthyl)pyrazolo[1,5-a]pyrimidin-7-yl]amino}cyclopentyl)methyl sulfamate] | 100% |
| NS(=O)(=O)OC[C@H]1C[C@@H](Nc2ccnc3cc(-c4c[nH]c5cc(Cl)ccc45)nn23)[C@H](O)[C@@H]1O (relative stereo) [Compound I-055, (rac)-[(1R,2R,3S,4R)-4-{[2-(6-chloro-1H-indol-3-yl)pyrazolo[1,5-a]pyrimidin-7-yl]amino}-2,3-dihydroxycyclopentyl]methyl rel-sulfamate] | 100% |
| NS(=O)(=O)OC[C@H]1C[C@@H](Nc2ccnc3cc(-c4cccc(N5CCOCC5)c4)nn23)[C@H](O)[C@@H]1O (relative stereo) [Compound I-078, (rac)-((1R,2R,3S,4R)-2,3-dihydroxy-4-(2-(3-morpholinophenyl)pyrazolo[1,5-a]pyrimidin-7-ylamino)cyclopentyl)methyl rel-sulfamate] | 100% |
